Results reported in PubChem BioAssay AID248 (DTP/NCI, 2004).
Values joined by “and” are separate entries in the source; they are usually repeats but may differ in a detail not shown here. Equal entries are not always repeated. Inconclusive results and toxic doses are left out. Cut-off read from the data, not from the text of the source: active = T/C of 150% or more; inactive = T/C below 125%.

System: L1210 leukemia ip in BDF1 mice, survival T/C
Test: NCI In Vivo Anticancer Drug Screen. Data for tumor model L1210 Leukemia (intraperitoneal) in B6D2F1 (BDF1) mice
Conditions: endpoint: mean survival time, higher = longer survival
In short: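 Survival endpoint. Drug-treated group vs vehicle group, expressed as T divided by C. Tumor passaged by transplantation.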

[1] = dose: 50.0 mg/kg/injection, schedule: Q01DX001 (ip), vehicle: saline
[2] = dose: 50.0 mg/kg/injection, schedule: Q01DX009 (ip), vehicle: saline
[3] = dose: 100.0 mg/kg/injection, schedule: Q01DX001 (ip), vehicle: saline
[4] = dose: 100.0 mg/kg/injection, schedule: Q01DX009 (ip), vehicle: saline
[5] = dose: 200.0 mg/kg/injection, schedule: Q01DX001 (ip), vehicle: saline
[6] = dose: 200.0 mg/kg/injection, schedule: Q01DX009 (ip), vehicle: saline
[7] = dose: 400.0 mg/kg/injection, schedule: Q01DX001 (ip), vehicle: saline
[8] = dose: 100.0 mg/kg/injection, schedule: Q01DX001 (ip), vehicle: saline with Tween-80
[9] = dose: 200.0 mg/kg/injection, schedule: Q01DX001 (ip), vehicle: saline with Tween-80
[10] = dose: 100.0 mg/kg/injection, schedule: Q04DX002 (ip), vehicle: Klucel (hydroxypropylcellulose) (HPC)
[11] = dose: 200.0 mg/kg/injection, schedule: Q04DX002 (ip), vehicle: Klucel (hydroxypropylcellulose) (HPC)
[12] = dose: 400.0 mg/kg/injection, schedule: Q04DX002 (ip), vehicle: Klucel (hydroxypropylcellulose) (HPC)
[13] = dose: 100.0 mg/kg/injection, schedule: Q04DX002 (ip), vehicle: saline with Tween-80
[14] = dose: 200.0 mg/kg/injection, schedule: Q04DX002 (ip), vehicle: saline with Tween-80
[15] = dose: 400.0 mg/kg/injection, schedule: Q04DX002 (ip), vehicle: saline with Tween-80
[16] = dose: 100.0 mg/kg/injection, schedule: Q01DX001 (ip), vehicle: carboxymethylcellulose (CMC)
[17] = dose: 200.0 mg/kg/injection, schedule: Q01DX001 (ip), vehicle: carboxymethylcellulose (CMC)
[18] = dose: 400.0 mg/kg/injection, schedule: Q01DX001 (ip), vehicle: carboxymethylcellulose (CMC)
[19] = dose: 100.0 mg/kg/injection, schedule: Q04DX003 (ip), vehicle: Klucel (hydroxypropylcellulose) (HPC)
[20] = dose: 200.0 mg/kg/injection, schedule: Q04DX003 (ip), vehicle: Klucel (hydroxypropylcellulose) (HPC)
[21] = dose: 400.0 mg/kg/injection, schedule: Q04DX003 (ip), vehicle: Klucel (hydroxypropylcellulose) (HPC)
[22] = dose: 100.0 mg/kg/injection, schedule: Q04DX003 (ip), vehicle: saline
[23] = dose: 200.0 mg/kg/injection, schedule: Q04DX003 (ip), vehicle: saline
[24] = dose: 100.0 mg/kg/injection, schedule: Q04DX003 (ip), vehicle: saline with Tween-80
[25] = dose: 200.0 mg/kg/injection, schedule: Q04DX003 (ip), vehicle: saline with Tween-80
[26] = dose: 400.0 mg/kg/injection, schedule: Q04DX003 (ip), vehicle: saline with Tween-80
[27] = dose: 100.0 mg/kg/injection, schedule: Q01DX009 (ip), vehicle: Klucel (hydroxypropylcellulose) (HPC)
[28] = dose: 200.0 mg/kg/injection, schedule: Q01DX009 (ip), vehicle: Klucel (hydroxypropylcellulose) (HPC)
[29] = dose: 400.0 mg/kg/injection, schedule: Q01DX009 (ip), vehicle: Klucel (hydroxypropylcellulose) (HPC)

Measured: T/C

N=[N+]=CC(=O)CC(N)C(=O)O (configuration not stated)
inactive: [1] 94 % of control | [2] 104 % of control | [3] 94 % of control | [4] 107 % of control | dose: 128.0 mg/kg/injection, schedule: Q03HX024 (ip), vehicle: saline 117 % of control | [5] 99 % of control | [6] 113 % of control | dose: 256.0 mg/kg/injection, schedule: Q04DX003 (ip), vehicle: saline 102 % of control | [7] 96 % of control | dose: 512.0 mg/kg/injection, schedule: Q04DX003 (ip), vehicle: saline 105 % of control | dose: 1024.0 mg/kg/injection, schedule: Q04DX003 (ip), vehicle: saline 108 % of control

S=C(Nc1ccccc1)Nc1ccc(NC(=S)Nc2ccccc2)cc1
inactive: [8] 96 % of control | [9] 92 % of control

CN/C([S-])=N/N=C/C(=N/N=C(\[S-])NC)c1ccc(-c2ccccc2)cc1.[Cu+2]
inactive: [10] 106 % of control | [11] 95 % of control | [12] 100 % of control

Cc1ccc(/C(C#N)=C/C2CCC(N(C)C)CC2)cc1 (configuration not stated)
inactive: [13] 87 % of control | [14] 93 % of control | [15] 87 % of control

NC(CSc1ccc([N+](=O)[O-])cc1Cl)C(=O)O (configuration not stated)
inactive: dose: 75.0 mg/kg/injection, schedule: Q01DX001 (ip), vehicle: saline 100 % of control | dose: 150.0 mg/kg/injection, schedule: Q01DX001 (ip), vehicle: saline 90 % of control | dose: 300.0 mg/kg/injection, schedule: Q01DX001 (ip), vehicle: saline 92 % of control

O=C(/C(=C\c1ccccc1)Oc1ccc(S[N+](=O)[O-])cc1)c1ccccc1
inactive: [16] 95 % of control | [17] 92 % of control | [18] 95 % of control

C/C=C/c1nc2c([nH]1)c(=O)n(C)c(=O)n2C
inactive: [1] 107 % of control | [3] 107 % of control | [5] 104 % of control | [7] 98 % of control

Cc1ccc(NCN2C(=O)c3ccccc3C2=O)c(C)c1
inactive: [19] 105 % of control | [20] 106 % of control | [21] 94 % of control

O=C1NC(=O)C(c2ccccc2)(c2ccc(Cl)cc2Cl)N1 (configuration not stated)
inactive: [16] 100 % of control | [3] 121 % of control | [4] 90 % of control | [22] 86 % of control | [17] 110 % of control | [5] 97 % of control | [6] 87 % of control | [23] 102 % of control | [18] 105 % of control | [7] 95 % of control | dose: 400.0 mg/kg/injection, schedule: Q01DX009 (ip), vehicle: saline 89 % of control | dose: 400.0 mg/kg/injection, schedule: Q04DX003 (ip), vehicle: saline 93 % of control

N=C(N)c1ccc(-c2nc3ccc(C(=N)N)cc3[nH]2)cc1
inactive: dose: 12.5 mg/kg/injection, schedule: Q04DX003 (ip), vehicle: saline 100 % of control and 103 % of control | dose: 25.0 mg/kg/injection, schedule: Q04DX003 (ip), vehicle: saline 100 % of control and 103 % of control | dose: 50.0 mg/kg/injection, schedule: Q04DX003 (ip), vehicle: saline 100 % of control and 103 % of control

CCC/C(=C/c1cc2ccccc2c2ccccc12)[N+](=O)[O-]
inactive: [16] 97 % of control | [17] 111 % of control | [18] 106 % of control

COc1cc(N=Nc2ccc([N+](=O)[O-])cc2)c(OC)cc1N
inactive: dose: 5.0 mg/kg/injection, schedule: Q01DX001 (ip), vehicle: other 98 % of control | dose: 10.0 mg/kg/injection, schedule: Q01DX001 (ip), vehicle: other 101 % of control | dose: 20.0 mg/kg/injection, schedule: Q01DX001 (ip), vehicle: other 98 % of control | dose: 40.0 mg/kg/injection, schedule: Q01DX001 (ip), vehicle: other 101 % of control

CCCCN(CCCC)C(=O)N(CCCC)CCCC
inactive: dose: 50.0 mg/kg/injection, schedule: Q01DX001 (ip), vehicle: saline with Tween-80 98 % of control | [8] 107 % of control | [9] 101 % of control

O=P(c1ccccc1)(c1ccccc1)C1(O)CCCCC1Cl (configuration not stated)
inactive: [3] 105 % of control | [5] 96 % of control | [7] 100 % of control

COC1=C(N=[N+]=[N-])C(=O)c2ccccc2C1=O
inactive: dose: 6.25 mg/kg/injection, schedule: Q04DX002 (ip), vehicle: saline with Tween-80 104 % of control | dose: 12.5 mg/kg/injection, schedule: Q04DX002 (ip), vehicle: saline with Tween-80 96 % of control

O=C1C(Br)(Br)CCCCC1(c1ccccc1)c1ccccc1
inactive: [24] 101 % of control | [25] 103 % of control | [26] 87 % of control

CN(CCC#N)c1ccc(C=C(C#N)C#N)cc1
inactive: [27] 92 % of control | [28] 95 % of control | [29] 97 % of control

Cc1ccc(NC(=O)c2cc([N+](=O)[O-])cc([N+](=O)[O-])c2)c(C)c1
inactive: [10] 94 % of control | [11] 94 % of control | [12] 91 % of control

CCN(CC)CCNc1ccccc1[N+](=O)[O-]
inactive: dose: 75.0 mg/kg/injection, schedule: Q01DX001 (ip), vehicle: acid diluted with saline 100 % of control | dose: 75.0 mg/kg/injection, schedule: Q04DX003 (ip), vehicle: acid diluted with saline 103 % of control | dose: 150.0 mg/kg/injection, schedule: Q01DX001 (ip), vehicle: acid diluted with saline 102 % of control | dose: 150.0 mg/kg/injection, schedule: Q04DX003 (ip), vehicle: acid diluted with saline 95 % of control | dose: 300.0 mg/kg/injection, schedule: Q01DX001 (ip), vehicle: acid diluted with saline 110 % of control

CC1(C)Cc2ccccc2C1=O
inactive: [13] 97 % of control | [14] 91 % of control | [15] 94 % of control

ClC(Cl)(Cl)C1OCOC(C(Cl)(Cl)Cl)O1 (configuration not stated)
inactive: [24] 98 % of control | [25] 96 % of control | [26] 101 % of control

O=[N+]([O-])c1ccc(C(=Nc2ccccc2)Nc2ccccc2)cc1
inactive: [24] 101 % of control | [25] 98 % of control | [26] 98 % of control

O=c1ccn2ccccc2n1
inactive: [2] 101 % of control | [4] 99 % of control | [22] 103 % of control | [6] 98 % of control | [23] 109 % of control

Nc1c(-c2ccccc2)[nH][nH]c1=O
inactive: dose: 100.0 mg/kg/injection, schedule: Q01DX001 (ip), vehicle: Klucel (hydroxypropylcellulose) (HPC) 91 % of control | [27] 92 % of control | [19] 100 % of control | dose: 200.0 mg/kg/injection, schedule: Q01DX001 (ip), vehicle: Klucel (hydroxypropylcellulose) (HPC) 99 % of control | [28] 92 % of control | [20] 102 % of control | dose: 400.0 mg/kg/injection, schedule: Q01DX001 (ip), vehicle: Klucel (hydroxypropylcellulose) (HPC) 94 % of control | [29] 93 % of control | [21] 104 % of control

O=NN(CC(=O)O)Cc1ccc(Cl)cc1
inactive: dose: 100.0 mg/kg/injection, schedule: Q01DX Z (ip), vehicle: saline 102 % of control | dose: 200.0 mg/kg/injection, schedule: Q01DX Z (ip), vehicle: saline 102 % of control

Cc1ccc2c(ccc(/C=C/c3ccc(O)c4ncccc34)[n+]2C)c1
inactive: dose: 22.0 mg/kg/injection, schedule: Q01DX009 (ip), vehicle: Klucel (hydroxypropylcellulose) (HPC) 115 % of control | dose: 33.0 mg/kg/injection, schedule: Q01DX009 (ip), vehicle: Klucel (hydroxypropylcellulose) (HPC) 117 % of control | [16] 108 % of control | [17] 124 % of control | [20] 98 % of control | [18] 124 % of control
